Results taken from PubChem BioAssay AID328 (DTP/NCI, 2004).
“And” between values parts separate entries of the source, which are not always exact repeats. Equal values may be shown once. Toxic doses and inconclusive results are not listed.

Test system: BDF1 mice, P388 leukemia ip, median survival T/C
Assay: NCI In Vivo Anticancer Drug Screen. Data for tumor model P388 Leukemia (intraperitoneal) in B6D2F1 (BDF1) mice
Settings: endpoint: median survival time, higher = longer survival
Summary of the method: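 Each value expresses how treatment altered survival: treated-mouse outcome over vehicle-mouse outcome, both groups bearing the transplanted tumour.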

[1] = dose: 12.5 mg/kg/injection, schedule: Q01DX009 (ip), vehicle: Klucel (hydroxypropylcellulose) (HPC)
[2] = dose: 25.0 mg/kg/injection, schedule: Q01DX009 (ip), vehicle: Klucel (hydroxypropylcellulose) (HPC)
[3] = dose: 50.0 mg/kg/injection, schedule: Q01DX009 (ip), vehicle: Klucel (hydroxypropylcellulose) (HPC)
[4] = dose: 50.0 mg/kg/injection, schedule: Q01DX009 (ip), vehicle: saline with Tween-80
[5] = dose: 100.0 mg/kg/injection, schedule: Q01DX009 (ip), vehicle: saline with Tween-80
[6] = dose: 200.0 mg/kg/injection, schedule: Q01DX009 (ip), vehicle: saline with Tween-80
[7] = dose: 50.0 mg/kg/injection, schedule: Q01DX009 (ip), vehicle: other
[8] = dose: 100.0 mg/kg/injection, schedule: Q01DX009 (ip), vehicle: other
[9] = dose: 200.0 mg/kg/injection, schedule: Q01DX009 (ip), vehicle: other
[10] = dose: 100.0 mg/kg/injection, schedule: Q04DX002 (ip), vehicle: saline with Tween-80
[11] = dose: 200.0 mg/kg/injection, schedule: Q04DX002 (ip), vehicle: saline with Tween-80
[12] = dose: 400.0 mg/kg/injection, schedule: Q04DX002 (ip), vehicle: saline with Tween-80
[13] = dose: 25.0 mg/kg/injection, schedule: Q01DX009 (ip), vehicle: saline with Tween-80
[14] = dose: 400.0 mg/kg/injection, schedule: Q01DX009 (ip), vehicle: saline with Tween-80
[15] = dose: 100.0 mg/kg/injection, schedule: Q04DX003 (ip), vehicle: saline with Tween-80
[16] = dose: 200.0 mg/kg/injection, schedule: Q04DX003 (ip), vehicle: saline with Tween-80
[17] = dose: 400.0 mg/kg/injection, schedule: Q04DX003 (ip), vehicle: saline with Tween-80
[18] = dose: 50.0 mg/kg/injection, schedule: Q04DX003 (ip), vehicle: saline with Tween-80
[19] = dose: 100.0 mg/kg/injection, schedule: Q01DX009 (ip), vehicle: Klucel (hydroxypropylcellulose) (HPC)
[20] = dose: 200.0 mg/kg/injection, schedule: Q01DX009 (ip), vehicle: Klucel (hydroxypropylcellulose) (HPC)
[21] = dose: 25.0 mg/kg/injection, schedule: Q01DX009 (ip), vehicle: saline
[22] = dose: 100.0 mg/kg/injection, schedule: Q04DX003 (ip), vehicle: Klucel (hydroxypropylcellulose) (HPC)

Cc1onc(-c2c(Cl)cccc2Cl)c1C(=O)Nc1ccccc1CC1c2ccccc2CCN1C (stereo not given)
T/C [1]: 96 % of control
T/C [2]: 99 % of control
T/C [3]: 89 % of control and 102 % of control

O=C(CI)N1c2ccccc2Sc2ccc3ccccc3c21
T/C [4]: 91 % of control
T/C [5]: 96 % of control
T/C [6]: 116 % of control

NC(=O)CNCCS(=O)(=O)O
T/C (dose: 100.0 mg/kg/injection, schedule: Q01DX009 (ip), vehicle: saline): 91 % of control
T/C (dose: 100.0 mg/kg/injection, schedule: Q04DX003 (ip), vehicle: saline): 100 % of control
T/C (dose: 200.0 mg/kg/injection, schedule: Q01DX009 (ip), vehicle: saline): 87 % of control
T/C (dose: 200.0 mg/kg/injection, schedule: Q04DX003 (ip), vehicle: saline): 109 % of control
T/C (dose: 400.0 mg/kg/injection, schedule: Q04DX003 (ip), vehicle: saline): 104 % of control

CCCCOC(=O)c1cccc(C(=O)OCCCC)c1Sc1ccccc1
T/C [7]: 105 % of control
T/C [8]: 100 % of control
T/C [9]: 107 % of control

CC(C)(O)c1ccccc1S(=O)(=O)c1ccccc1C(C)(C)O
T/C [10]: 94 % of control
T/C [11]: 93 % of control
T/C [12]: 89 % of control

CC1=NN(c2ccccc2)C(=O)C1C(=S)SC1CC(=O)OC1=O (stereo not given)
T/C [4]: 100 % of control
T/C [5]: 112 % of control

C#CC[N+](CCO)(CCO)CCCCCCCCCCCCCCCCCC
T/C (dose: 3.13 mg/kg/injection, schedule: Q01DX009 (ip), vehicle: Klucel (hydroxypropylcellulose) (HPC)): 110 % of control
T/C (dose: 6.25 mg/kg/injection, schedule: Q01DX009 (ip), vehicle: Klucel (hydroxypropylcellulose) (HPC)): 109 % of control
T/C [1]: 113 % of control and 120 % of control

Cc1cc2c(C(C)C)c(O)c(O)cc2c(O)c1-c1c(C)cc2c(C(C)C)c(O)c(O)cc2c1O
T/C (dose: 12.5 mg/kg/injection, schedule: Q01DX009 (ip), vehicle: saline with Tween-80): 91 % of control
T/C [13]: 100 % of control
T/C [4]: 120 % of control

CCOc1ccn(CC(=O)c2ccc(Cl)s2)c(=O)n1
T/C [4]: 106 % of control
T/C [5]: 113 % of control
T/C [6]: 97 % of control
T/C [14]: 106 % of control

[CH3][Sn]([CH3])([CH3])[O]C(=O)CCl
T/C (dose: 0.75 mg/kg/injection, schedule: Q01DX009 (ip), vehicle: saline): 120 % of control
T/C (dose: 1.5 mg/kg/injection, schedule: Q01DX009 (ip), vehicle: saline): 106 % of control

C=CCSc1ncnc2c1ncn2C1OC(CO)C(O)C1O (stereo not given)
T/C [5]: 113 % of control

O=C(NC(=O)c1c(F)cccc1F)Nc1ccc(Br)cn1
T/C [13]: 99 % of control
T/C [4]: 92 % of control
T/C [5]: 92 % of control

N#CCCC(C#N)(CCC#N)c1ccc([N+](=O)[O-])cc1
T/C [5]: 92 % of control
T/C [15]: 101 % of control
T/C [6]: 92 % of control
T/C [16]: 100 % of control
T/C [14]: 92 % of control
T/C [17]: 102 % of control

COc1ccccc1C1(O)c2ccccc2Sc2cccc(OC)c21 (stereo not given)
T/C [5]: 104 % of control
T/C [6]: 100 % of control
T/C [14]: 95 % of control

O=C(NC1CCC1C(=O)O)OCc1ccccc1 (stereo not given)
T/C [10]: 101 % of control
T/C [11]: 104 % of control
T/C [12]: 110 % of control

CC(=O)N(C(C)=O)c1ccc(N=Nc2ccccc2C)cc1C
T/C [4]: 90 % of control
T/C [5]: 90 % of control
T/C [15]: 95 % of control
T/C [6]: 86 % of control
T/C [16]: 100 % of control
T/C [17]: 100 % of control

Cc1cc(N(C)C)ccc1/C=C/c1ccnc2ccccc12
T/C [10]: 117 % of control
T/C [11]: 107 % of control

CCOc1ccc(/C=N/NS(=O)(=O)c2ccccc2)cc1OC
T/C [6]: 105 % of control
T/C [14]: 100 % of control

c1ccn2c(CSCc3nnc4ccccn34)nnc2c1
T/C [4]: 100 % of control
T/C [5]: 109 % of control
T/C [6]: 109 % of control

CCOC(=O)c1[nH]cnc1/N=N/N(C)C
T/C (dose: 26.4 mg/kg/injection, schedule: Q01DX009 (ip), vehicle: saline with Tween-80): 175 % of control
T/C (dose: 60.0 mg/kg/injection, schedule: Q01DX009 (ip), vehicle: saline with Tween-80): 87 % of control

c1cnc2c3c(ccc2c1)CN(C1CCCCC1)CO3
T/C [18]: 104 % of control
T/C [15]: 104 % of control
T/C [16]: 90 % of control

Oc1ccc(Br)c2cccnc12
T/C [2]: 91 % of control
T/C [3]: 111 % of control
T/C [19]: 98 % of control
T/C [20]: 102 % of control
T/C (dose: 200.0 mg/kg/injection, schedule: Q01DX010 (ip), vehicle: saline): 100 % of control

Cc1ccc(S(=O)(=O)N(CCC(=N)N)C(C)C)cc1
T/C (dose: 12.5 mg/kg/injection, schedule: Q01DX009 (ip), vehicle: saline): 95 % of control
T/C [21]: 90 % of control
T/C (dose: 25.0 mg/kg/injection, schedule: Q04DX003 (ip), vehicle: saline): 104 % of control
T/C (dose: 50.0 mg/kg/injection, schedule: Q01DX009 (ip), vehicle: saline): 105 % of control
T/C (dose: 50.0 mg/kg/injection, schedule: Q04DX003 (ip), vehicle: saline): 100 % of control

Cc1c(C)c(CC#N)c(C)c(C)c1CC#N
T/C [2]: 91 % of control
T/C [3]: 91 % of control
T/C [19]: 87 % of control
T/C [22]: 92 % of control
T/C [20]: 91 % of control

N.N.N.NC(Cc1cnc[nH]1)C(=O)[O-].O=[N+]([O-])[O-].[Co+3] (stereo not given)
T/C (dose: 2.0 mg/kg/injection, schedule: Q01DX009 (ip), vehicle: saline): 89 % of control
T/C (dose: 4.0 mg/kg/injection, schedule: Q01DX009 (ip), vehicle: saline): 95 % of control and 110 % of control and 113 % of control
T/C (dose: 8.0 mg/kg/injection, schedule: Q01DX009 (ip), vehicle: saline): 100 % of control and 110 % of control
T/C (dose: 20.0 mg/kg/injection, schedule: Q01DX009 (ip), vehicle: saline): 120 % of control
T/C [21]: 90 % of control

CC(C)CSP(=S)(c1cc(Cl)ccc1Cl)c1cc(Cl)ccc1Cl
T/C [7]: 102 % of control
T/C [8]: 101 % of control
T/C [9]: 105 % of control

CC1(C)OC2OC(COC(=O)c3ccccc3)C(=O)C2O1 (stereo not given)
T/C [5]: 92 % of control
T/C [6]: 92 % of control
T/C [14]: 101 % of control

CC(=O)NC1C([Se][As](C)C)OC(COC(C)=O)C(OC(C)=O)C1OC(C)=O (stereo not given)
T/C (dose: 6.25 mg/kg/injection, schedule: Q01DX009 (ip), vehicle: saline with Tween-80): 116 % of control
T/C [13]: 115 % of control

O=S1(=O)CCN(C2CCCCCC2)CC1
T/C [3]: 106 % of control
T/C [19]: 111 % of control
T/C [20]: 109 % of control

Nc1ccc2c(c1)Cc1cc(Br)ccc1-2
T/C [22]: 104 % of control
T/C (dose: 200.0 mg/kg/injection, schedule: Q04DX003 (ip), vehicle: Klucel (hydroxypropylcellulose) (HPC)): 100 % of control
T/C (dose: 400.0 mg/kg/injection, schedule: Q04DX003 (ip), vehicle: Klucel (hydroxypropylcellulose) (HPC)): 100 % of control

O=NN(CCCl)C(=O)N[C@H]1CCCC[C@@H]1Cl
T/C (dose: 33.0 mg/kg/injection, schedule: Q04DX003 (ip), vehicle: saline with Tween-80): 272 % of control
T/C [18]: 272 % of control
T/C (dose: 75.0 mg/kg/injection, schedule: Q04DX003 (ip), vehicle: saline with Tween-80): 213 % of control

COc1c2occc2c(CC(O)C(C)(C)O)c2ccc(=O)oc12 (stereo not given)
T/C (dose: 43.8 mg/kg/injection, schedule: Q01DX009 (ip), vehicle: Klucel (hydroxypropylcellulose) (HPC)): 103 % of control
T/C (dose: 87.5 mg/kg/injection, schedule: Q01DX009 (ip), vehicle: Klucel (hydroxypropylcellulose) (HPC)): 92 % of control
T/C (dose: 175.0 mg/kg/injection, schedule: Q01DX009 (ip), vehicle: Klucel (hydroxypropylcellulose) (HPC)): 90 % of control
